The subject of assay [1] is SOD1-G93A mice grafted with human NSCs. In words: Graft rejection and human NSC graft survival under immunosuppressive regimens in SOD1-G93A mice (ICC for HNu, CD4, CD8, DX5, Iba-1). To be noted: compared to the double immunosuppressive regimen.
Method: Thus, five experimental groups were given different immunosuppressive treatments: the first group was treated with FK506 monotherapy (Prograf, Fujisawa Healthcare, Inc., Deerfield, Ill.) (2 μg/g/day, n=23); a second group was treated with a double immunosuppressive regimen combining FK506 and rapamycin (Calbiochem, La Jolla, Calif.) (1 μg/g/day each, n=21); a third group received triple immunosuppression with FK506, rapamycin, and MMF (CellCept, Roche, Nutley, N.J.) (1 μg/g/day each for FK506 and rapamycin, 100 μg/g/day for MMF, n=14); a fourth group was treated with CD4 antibodies (clone GK1.5, 20 μg/g/day, n=12); and a fifth group (n=10) was treated with FK506 plus rapamycin exactly as the second group, except that subjects were grafted with dead cells. Dead-cell grafts utilized cells that were exposed to repeated freezing-thawing and served to control for the potential therapeutic effects of immunosuppressants themselves on motor neuron disease. […] Males and females were randomly admixed in the various experimental groups to minimize a systemic effect of gender on disease progression and treatment response. […]
The test system of the next assay is SOD1-G93A mice. Briefly: Clinical outcomes (disease onset, life span, motor score) in SOD1-G93A mice grafted with human NSCs. To be noted: SOD1-G93A mice grafted with live NSCs, by immunosuppressive regimen.

As to `COc1c(C)c2c(c(O)c1C/C=C(\C)CCC(=O)OCCN1CCOCC1)C(=O)OC2` [MMF, mycophenolate mofetil], the “effect of adding MMF to FK506 plus rapamycin on graft survival and infiltration by CD4/CD8 (+) cells or microglia/macrophages” value in assay [1] is recorded as “no apparent effects”.

`C=CC[C@@H]1/C=C(\C)C[C@H](C)C[C@H](OC)[C@H]2O[C@@](O)(C(=O)C(=O)N3CCCC[C@H]3C(=O)O[C@H](/C(C)=C/[C@@H]3CC[C@@H](O)[C@H](OC)C3)[C@H](C)[C@@H](O)CC1=O)[C@H](C)C[C@@H]2OC` [FK506]: in the assay on SOD1-G93A mice, the average disease onset turned out to be 13.2±1.8 weeks and the life span amounted to 17.6±2.0 weeks.

The values above are taken from patent US20150086511A1, “SURVIVAL, DIFFERENTIATION AND STRUCTURAL INTEGRATION OF HUMAN NEURAL STEM CELLS GRAFTED INTO THE ADULT RAT SPINAL CORD” (NEURALSTEM, INC., priority 2005, published 2015).
